These results are taken from patent US9744175B2, “Compositions of combinations of non-covalent DNA binding agents and anti-cancer and/or anti-inflammatory agents and their use in disease treatment” (INDUS PHARMACEUTICALS, INC., priority 2012, dated 2017).

One assay has as its system U2OS. The assay is described as follows: Growth inhibition in tumor cell lines (Table 2). The note with it: Osteosacroma, WT, lack of EGFR. It counts as cell-based, human.
In another assay the test system is SW403. Description: Growth inhibition in tumor cell lines (Table 2). In kind it is cell-based, human. As to conditions: SW403, colon, WT (EGFR over expression).
The next assay relates to CEM. The assay is described as follows: Growth inhibition in tumor cell lines (Table 2). In kind it is cell-based, human. As to conditions: leukemia, PTEN deficiency. As for the experimental part: (§1) Three novel non-covalent DNA binding agents of the invention, NSC 718813, NSC 723734 and NSC 726260, are tested in five different EGFR-resistant, K-Ras mutant cancer cell lines. These cell lines represent colorectal (SW480, SW620 and HCT116) and breast cancer (MDA-MB-231 and […]).
(§2) The in vitro assays to evaluate the anticancer potential of non-covalent DNA binding agents were measured by using one or more of the assays described below.
(§3) Tumor cells are plated in 96 well plates at a density of 8,000 to 10,000 cells per well in 100 uL volume and grown overnight. On the second day, the cells are supplemented with medium containing an appropriate dilution of the compounds to be tested. The cells are treated with the test compounds for two more days and the growth medium was replaced with fresh medium containing 3% Alamar Blue, incubated for 2-3 hours and plates are read in a SpectraMax Gemini XS fluorescence plate reader (Molecular Devices).

Another assay relates to HCT116. Description: Growth inhibition in tumor cell lines (Table 2). In kind it is cell-based, human. The note with it: HCT116, colon, KRAS mutation, MLH1 deficiency. How it is done: as §1, §2, §3
The test system of the next assay is MDA-MB-468. Description: Growth inhibition in tumor cell lines (Table 2). As to conditions: MDA-MB-468, breast, ERK+ (EGFR over expression), PTEN deficiency. It counts as cell-based, human. How it is done: as §1, §2, §3
Another assay deals with MDA231. The assay is described as follows: Growth inhibition in tumor cell lines (Table 2). It counts as cell-based, human. As to conditions: MDA231, breast, KRAS & BRAF (ERK+). How it is done: as §1, §2, §3
In a further assay the test system is SW480. The assay is described as follows: Growth inhibition in tumor cell lines (Table 2). In kind it is cell-based, human. The note with it: SW480, colon, KRAS mutation. As for the experimental part:
as §1, §2, §3

Another assay concerns SW620. Description: Growth inhibition in tumor cell lines (Table 2). It counts as cell-based, human. The note with it: SW620, colon, KRAS mutation. As for the experimental part:
as §1, §2, §3

The next assay relates to Wild type yeast. Description: Alamar Blue cell survival assay in yeast cells. It counts as cell-based. How it is done: (§4) The cells are diluted 100-fold in yeast complete medium. 100 μL of diluted cells are seeded in 96 well plates with or without a non-covalent DNA binding compound and incubated for 24 hours at 30° C. The following day, an equal volume of yeast complete medium containing 1% alamar blue is added and incubated at 30° C. for two hours. Fluorescence intensity is measured in a fluorescent reader to calculate the inhibition effect of non-covalent DNA binding agents in mutant and wild type yeast cells.
(§5) Yeast cells that carry mutations in different genes involved in homologous recombination (rad 50, rad51, rad52, and rad57) and nucleotide excision/double strand repair (rad1) are grown to stationary culture overnight.
(Resazurin is reduced to fluorescent resorufin, in cell work by metabolically active cells.)

A further assay concerns yeast rad1 mutation. Description: Alamar Blue cell survival assay in yeast cells. It counts as cell-based. How it is done:
as §4, §5

A further assay has as its system yeast rad50 mutation. Description: Alamar Blue cell survival assay in yeast cells. It counts as cell-based. How it is done: as §4, §5
The test system of a further assay is yeast rad51 mutation. Description: Alamar Blue cell survival assay in yeast cells. In kind it is cell-based. As for the experimental part: as §4, §5
The test system of the next assay is yeast rad52 mutation. Description: Alamar Blue cell survival assay in yeast cells. In kind it is cell-based. How it is done:
as §4, §5

Another assay deals with HCT116 (mlh−). Description: siRNA inhibition of p53 and REV functions, alamar blue growth inhibition. It counts as cell-based, human. As to conditions: for IC50: no siRNA knock out, read-out: IC50, Control; for Fold improvement in IC50, p53: p53 siRNA vs control; for Fold improvement in IC50, rev: rev siRNA vs control. As for the experimental part:
(§6) siRNA specific for different genes is purchased from Dharmacon (Thermo. Fisher Scientific Dharmacon Products, Lafayette, Colo. 80026) and the protocol recommended by the supplier is utilized. Confluent cells are trypsinized and 5000 cells are seeded in a well in the presence or absence of siRNA in 100 μL medium. The cells are incubated with siRNA for two days. A non-covalent DNA binding agent of the invention is added in a 10 μL volume and incubated for another 48 hours. After treatment with the agent, the medium is replaced with 1% alamar blue containing medium to measure fluorescence after two hours.
as §6, with “from Dharmacon (Thermo Fisher Scientific” for “from Dharmacon (Thermo. Fisher Scientific”, “two hours. […] The results are presented in FIGS. 14-18 (SEQ ID NO:3-12, respectively) and Table 7.” for “two hours.”

Assay [1] has as its system SW620 colon tumor xenograft. Description: SW620 colon tumor xenograft model. In kind it is in vivo, mice.

Molecules are shown by their SMILES. Bounds are passed on as bounds.

By IC50 is commonly meant the concentration at which inhibition is half-maximal. For the compound `COc1cc2c(cc1OCCCCN1CCN(CCCCOc3cc4c(cc3OC)C(=O)N3CCC[C@H]3C=N4)CC1)N=C[C@@H]1CCCN1C2=O` [NSC 723734], the half-maximal inhibitory concentration (IC50) worked out at 178 nM in the assay with U2OS; 550 nM in the assay with SW403; 49 ± 0.8 nM in the assay on CEM; 160 nM with HCT116; 22 ± 0.7 nM in the assay on MDA-MB-468; 394 nM in the assay with MDA231. Moreover, the half-maximal inhibitory concentration (IC50) in the assay on SW480 is 575 nM; in the assay with SW620 it was 175 ± 25 nM; in the assay with Wild type yeast, above 250 µM; in the assay on yeast rad1 mutation it was 15 µM; with yeast rad50 mutation it was 17 µM; with yeast rad51 mutation it was 28 µM. The IC50 was 50 µM in the assay on yeast rad52 mutation and 300 nM in the assay with HCT116 (mlh−). Moreover, the “Fold improvement in IC50, p53” value with HCT116 (mlh−) is on record as 2.2 fold. Further, in the assay on HCT116 (mlh−), the “Fold improvement in IC50, rev” value came out at 2.2 fold. Besides, the “dose-reduction index (DRI) of combination with cisplatin” value in [1] (SW620 colon tumor xenograft mouse model) is recorded as “significant dose-reduction index (DRI)”. In addition, the “quantitative analysis of combination with cisplatin” value in assay [1] (combination doses achieving >50% efficacy) is given as “synergistic with cisplatin”. Further, the “synergy with cisplatin in SW620 colon tumor xenograft mouse model” value in assay [1] (intermittent IP administration of the two drugs) is “excellent synergy with cisplatin”. The “synergy with cisplatin at lower (minimally active) cisplatin dose” value in assay [1] (intermittent IP administration, SW620 xenograft in mice) was “synergistic with cisplatin and restores antitumor activity of cisplatin”. Further, the “activity in SW620 colon tumor xenograft model” value in assay [1] (intraperitoneal, once daily administration for 7 days) was “superior activity to NSC718813”. Also, in [1] (intravenous and intraperitoneally administered), the “reduction in SW620 colon tumor xenograft” value is listed as “dose-dependent reduction”.
Turning to `COc1cc2c(cc1OCCCCCOc1cc3c(cc1OC)C(=O)N1CCC[C@H]1C(=O)N3)N=C[C@@H]1CCCN1C2=O` [NSC 718813], the IC50 in the assay on U2OS stood at 202 nM; with SW403, 210 nM; in the assay on CEM it was 51 ± 0.6 nM; in the assay on HCT116, 17 nM; with MDA-MB-468, 8 ± 1.2 nM; in the assay with MDA231, 54 nM. Further, the IC50 in the assay with SW480 was 48 nM; in the assay on SW620, 236 ± 37.2 nM; in the assay on Wild type yeast it was above 250 µM; in the assay with yeast rad1 mutation, 11 µM; in the assay with yeast rad50 mutation it was 90 µM; in the assay on yeast rad51 mutation, 7 µM. Also, in the assay with yeast rad52 mutation, the IC50 stood at 90 µM. Also, in the assay on HCT116 (mlh−), the “Fold improvement in IC50, p53” value came to 12.5 fold. Further, the “Fold improvement in IC50, rev” value in the assay on HCT116 (mlh−) is reported as 7.1 fold. The “tumor burden in SW620 colon tumor xenograft model” value in assay [1] (Q1 Dx5 IV followed by Q4Dx3 IP administration) is reported as “reduces tumor burden”.
Regarding `COc1cc2c(cc1OCCCC(=O)Nc1ccc3ccc4cccc5ccc1c3c45)N=C[C@@H]1CCCN1C2=O` [NSC 726260], the half-maximal inhibitory concentration (IC50) was 397 nM in the assay on U2OS; 1020 nM in the assay with SW403; 161 ± 0.4 nM with CEM; 550 nM in the assay with HCT116; 364 nM in the assay with MDA-MB-468; 501 nM with MDA231. The IC50 with SW480 came out at 1080 nM; with SW620, 1050 ± 50 nM; in the assay with Wild type yeast it was 45 µM; with yeast rad1 mutation, 15 µM; with yeast rad50 mutation, 20 µM; in the assay on yeast rad51 mutation, 4.5 µM. Also, the figures for the IC50 with yeast rad52 mutation and in the assay on HCT116 (mlh−) were 15 µM and 750 nM, respectively. In addition, the “Fold improvement in IC50, p53” value in the assay with HCT116 (mlh−) is reported as 3.8 fold. The “Fold improvement in IC50, rev” value in the assay on HCT116 (mlh−) came out at 5.0 fold. Moreover, in assay [1] (combined IV and IP administration), the “pharmacological activity in SW620 colon tumor xenograft model” value is given as “limited pharmacological activity”.
